Data as given in ChEMBL document CHEMBL1129001, “From indomethacin to a selective COX-2 inhibitor: Development of indolalkanoic acids as potent and selective cyclooxygenase-2 inhibitors” (Bioorg Med Chem Lett, 1996).
pIC50: −log10 of the molar value.

Columns and labels:
[1] = tested on: Rattus norvegicus; experiment: Compound was evaluated for inhibition of paw edema in rat; type: functional
[2] = biological target: T1, Prostaglandin G/H synthase 2 (Rattus norvegicus, UniProt P35355)
T1 sequence (P35355 whole entry): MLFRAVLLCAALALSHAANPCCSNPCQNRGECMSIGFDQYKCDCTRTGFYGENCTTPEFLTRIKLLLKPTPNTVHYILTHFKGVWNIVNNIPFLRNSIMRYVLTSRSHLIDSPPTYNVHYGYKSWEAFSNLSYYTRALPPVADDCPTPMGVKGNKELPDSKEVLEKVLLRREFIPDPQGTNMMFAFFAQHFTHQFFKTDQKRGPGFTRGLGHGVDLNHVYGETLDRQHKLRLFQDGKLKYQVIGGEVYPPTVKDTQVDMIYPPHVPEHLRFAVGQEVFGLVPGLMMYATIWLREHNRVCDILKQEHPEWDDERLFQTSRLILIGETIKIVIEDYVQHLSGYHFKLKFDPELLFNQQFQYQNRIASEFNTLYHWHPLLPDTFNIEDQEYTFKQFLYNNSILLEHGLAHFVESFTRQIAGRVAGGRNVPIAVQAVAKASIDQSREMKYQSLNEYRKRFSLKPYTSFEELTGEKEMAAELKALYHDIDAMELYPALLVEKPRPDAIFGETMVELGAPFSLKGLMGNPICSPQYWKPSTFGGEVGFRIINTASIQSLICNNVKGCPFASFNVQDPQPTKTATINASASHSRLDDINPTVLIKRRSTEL
Description: Inhibition of Prostaglandin G/H synthase 2

[3] = biological target: T2, Prostaglandin G/H synthase 1 (Rattus norvegicus, UniProt Q63921)
T2 sequence (Q63921 whole entry): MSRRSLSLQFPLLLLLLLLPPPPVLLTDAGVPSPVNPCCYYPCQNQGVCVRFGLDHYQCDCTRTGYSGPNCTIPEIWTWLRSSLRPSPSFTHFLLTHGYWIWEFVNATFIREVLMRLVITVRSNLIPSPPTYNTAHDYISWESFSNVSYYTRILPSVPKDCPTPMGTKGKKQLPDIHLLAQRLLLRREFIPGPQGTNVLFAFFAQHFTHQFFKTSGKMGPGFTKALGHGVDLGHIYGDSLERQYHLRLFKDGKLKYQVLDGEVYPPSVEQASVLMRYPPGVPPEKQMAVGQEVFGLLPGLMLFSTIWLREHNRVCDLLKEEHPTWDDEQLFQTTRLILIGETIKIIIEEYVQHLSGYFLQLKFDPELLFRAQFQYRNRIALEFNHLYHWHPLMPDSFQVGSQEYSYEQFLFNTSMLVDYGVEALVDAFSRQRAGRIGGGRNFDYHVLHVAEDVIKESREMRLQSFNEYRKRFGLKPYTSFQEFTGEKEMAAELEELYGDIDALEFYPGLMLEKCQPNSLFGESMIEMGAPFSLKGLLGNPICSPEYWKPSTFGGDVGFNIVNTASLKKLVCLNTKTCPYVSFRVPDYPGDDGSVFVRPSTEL
Description: Inhibition of Prostaglandin G/H synthase 1 using whole cell assay

pIC50 [2]	pIC50 [3]	Compound	ED30 [1]
6.30	< 4.00	COc1ccc2c(c1)c(CC(=O)O)c(C)n2C(=O)c1c(Cl)cc(Cl)cc1Cl	1.3 mg/kg
8.52	< 4.30	COc1ccc2c(c1)c(CC(C)C(=O)O)c(C)n2Cc1ccc(Br)cc1 (centres undefined)	2.6 mg/kg
8.52	< 4.30	COc1ccc2c(c1)c(CCC(=O)O)c(C)n2Cc1ccc(Br)cc1	> 3 mg/kg
7.70	4.96	COc1ccc2c(c1)c(C(C)C(=O)O)c(C)n2Cc1ccc(Cl)cc1 (centres undefined)	3 mg/kg
8.40	< 4.30	COc1ccc2c(c1)c(C(C)CC(=O)O)c(C)n2Cc1ccc(Br)cc1 (centres undefined)	0.6 mg/kg
7.80	< 5.00	COc1ccc2c(c1)c(CC1(CC(=O)O)CC1)c(C)n2Cc1ccc(Br)cc1	0.5 mg/kg
7.22	< 4.30	COc1ccc2c(c1)c([C@@H](C)[C@@H](C)C(=O)O)c(C)n2Cc1ccc(Br)cc1	0.6 mg/kg
8.05	4.39	COc1ccc2c(c1)c(CC(=O)O)c(C)n2Cc1ccc(Br)cc1	0.6 mg/kg
8.40	< 5.00	COc1ccc2c(c1)c(CCC(C)C(=O)O)c(C)n2Cc1ccc(Br)cc1 (centres undefined)	1.6 mg/kg
8.22	< 4.30	COc1ccc2c(c1)c(CCCC(=O)O)c(C)n2Cc1ccc(Br)cc1	1.2 mg/kg
		COc1ccc2c(c1)c(CC(=O)O)c(C)n2C(=O)c1ccc(Cl)cc1 [INDOMETHACIN]	0.9 mg/kg

Compound	pIC50 [2]	pIC50 [3]	ED30 [1]
COc1ccc2c(c1)c(CC(C)CC(=O)O)c(C)n2Cc1ccc(Br)cc1 (centres undefined)	8.70	< 5.00	0.4 mg/kg
